Consider one molecule from article PMC6218639, “The calcium sensitizer drug MCI-154 binds the structural C-terminal domain of cardiac troponin C” (Biochemistry and Biophysics Reports, 2018).

The target of this assay is T1, cardiac troponin C (cTnC) (Homo sapiens, UniProt P63316, C35S/C84S).
T1 construct: gene TNNC1; cTnC residues 1–161
Kind of assay: 2D 1H, […]-HSQC NMR titration (KD […]), confirmed by ITC. Type of assay: binding.

The structures appear in SMILES notation.

`O=C1CCC(c2ccc(Nc3ccncc3)cc2)=NN1` [MCI-154, 6-(4-(pyridin-4-ylamino)phenyl)-4,5-dihydropyridazin-3(2H)-one] returned a Kd of 500 ± 100 µM.
